Measured values from patent US20160122320A1, “USEFUL COMBINATIONS OF MONOBACTAM ANTIBIOTICS WITH BETA-LACTAMASE INHIBITORS” (Basilea Pharmaceutica AG, priority 2005, published 2016).
Structures can show the parent of a compound that is named as a salt. Each block holds one compound with its values, some of them ahead of it.

Legend:
Assay in all cases: MIC, NCCLS broth microdilution
Assay type in all cases: cell-based
[1] = system: Serratia marcescens S6; settings: for MIC of antibiotic at fixed inhibitor concentration (4 mg/L): MIC of antibiotic compound 1 with the labelled bridged monobactam of formula II and clavulanate, 4 mg/L each
[2] = system: Enterobacter cloacae P99; settings: for MIC of antibiotic at fixed inhibitor concentration (4 mg/L): MIC of antibiotic compound 1 with the labelled bridged monobactam of formula II and clavulanate, 4 mg/L each
[3] = system: Pseudomonas aeruginosa MK1184; settings: for MIC of antibiotic at fixed inhibitor concentration (4 mg/L): MIC of antibiotic compound 1 with the labelled bridged monobactam of formula II and clavulanate, 4 mg/L each
[4] = system: Stenotrophomonas malthophilia 1AC736; settings: for MIC of antibiotic at fixed inhibitor concentration (4 mg/L): Stenotrophomonas malthophilia 1AC736, MIC of antibiotic compound 1 with the labelled bridged monobactam of formula II and clavulanate, 4 mg/L each
[5] = system: Klebsiella pneumoniae CF104; settings: for MIC of antibiotic at fixed inhibitor concentration (4 mg/L): MIC of antibiotic compound 1 with the labelled bridged monobactam of formula II and clavulanate, 4 mg/L each
[6] = system: Acinetobacter sp. J2; settings: for MIC of antibiotic at fixed inhibitor concentration (4 mg/L): Acinetobacter sp. J2, MIC of antibiotic compound 1 with the labelled bridged monobactam of formula II and clavulanate, 4 mg/L each
[7] = system: Pseudomonas aeruginosa 1973E; settings: for MIC of antibiotic at fixed inhibitor concentration (4 mg/L): MIC of antibiotic compound 1 with the labelled bridged monobactam of formula II and clavulanate, 4 mg/L each
How it was run: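 Growth inhibition read by eye after overnight incubation (30° C. or 37° C.) defines the MIC, using NCCLS M7-A5 broth microdilution with ≤1% DMSO. When combinations were tested, only the formula I compound was titrated and each partner was fixed at 4 μg/mL.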

Compound: CC1(C)C(NC(=O)C(=NOCc2cc(=O)c(O)cn2O)c2nsc(N)n2)C(=O)N1OS(=O)(=O)O (stereo not shown) [Compound 32]
MIC of antibiotic ([1]; antibiotic alone, no inhibitor): 0.5 µg/mL
MIC of antibiotic at fixed inhibitor concentration of 4 mg/L ([1]; with 102 and clavulanate): 0.25 µg/mL
MIC of antibiotic at fixed inhibitor concentration of 4 mg/L ([1]; with 324 and clavulanate): 0.25 µg/mL
MIC of antibiotic ([2]; antibiotic alone, no inhibitor): 32 µg/mL
MIC of antibiotic at fixed inhibitor concentration of 4 mg/L ([2]; with 102 and clavulanate): 8 µg/mL
MIC of antibiotic at fixed inhibitor concentration of 4 mg/L ([2]; with 324 and clavulanate): 4 µg/mL
MIC of antibiotic ([3]; antibiotic alone, no inhibitor): 4 µg/mL
MIC of antibiotic at fixed inhibitor concentration of 4 mg/L ([3]; with 102 and clavulanate): 4 µg/mL
MIC of antibiotic at fixed inhibitor concentration of 4 mg/L ([3]; with 324 and clavulanate): 4 µg/mL
MIC of antibiotic ([4]; Stenotrophomonas maltophilia 1AC736, antibiotic alone, no inhibitor): 0.5 µg/mL
MIC of antibiotic at fixed inhibitor concentration of 4 mg/L ([4]; Stenotrophomonas maltophilia 1AC736, with 102 and clavulanate): 0.5 µg/mL
MIC of antibiotic at fixed inhibitor concentration of 4 mg/L ([4]; Stenotrophomonas maltophilia 1AC736, with 324 and clavulanate): 0.5 µg/mL
MIC of antibiotic ([5]; antibiotic alone, no inhibitor): >32 µg/mL
MIC of antibiotic at fixed inhibitor concentration of 4 mg/L ([5]; with 102 and clavulanate): 1 µg/mL
MIC of antibiotic at fixed inhibitor concentration of 4 mg/L ([5]; with 324 and clavulanate): 2 µg/mL
MIC of antibiotic ([6]; Acinetobacter baumannii J2, antibiotic alone, no inhibitor): >32 µg/mL
MIC of antibiotic at fixed inhibitor concentration of 4 mg/L ([6]; Acinetobacter baumannii J2, with 102 and clavulanate): 4 µg/mL
MIC of antibiotic at fixed inhibitor concentration of 4 mg/L ([6]; Acinetobacter baumannii J2, with 324 and clavulanate): 8 µg/mL
MIC of antibiotic ([7]; antibiotic alone, no inhibitor): 16 µg/mL
MIC of antibiotic at fixed inhibitor concentration of 4 mg/L ([7]; with 102 and clavulanate): 8 µg/mL
MIC of antibiotic at fixed inhibitor concentration of 4 mg/L ([7]; with 324 and clavulanate): 8 µg/mL

Compound: O=C(N[C@H]1CCNC1)c1ccc[n+](CC(=O)N2CC[C@@H]3[C@H]2C(=O)N3S(=O)(=O)[O-])c1 [Compound 122, 2-(2-{3-[N-((3S)pyrrolidin-3-yl)carbamoyl]pyridinium}acetyl)(1S,5R)-7-oxo-2,6-diazabicyclo[3.2.0]heptane-6-sulfonate, inner salt]
MIC of antibiotic at fixed inhibitor concentration (4 mg/L) [1]: 0.25 µg/mL
MIC of antibiotic at fixed inhibitor concentration (4 mg/L) [2]: 16 µg/mL
MIC of antibiotic at fixed inhibitor concentration (4 mg/L) [3]: 16 µg/mL
MIC of antibiotic at fixed inhibitor concentration (4 mg/L) [4]: 0.125 µg/mL
MIC of antibiotic at fixed inhibitor concentration (4 mg/L) [5]: 0.125 µg/mL
MIC of antibiotic at fixed inhibitor concentration (4 mg/L) [6]: >32 µg/mL
MIC of antibiotic at fixed inhibitor concentration (4 mg/L) [7]: 4 µg/mL

Next, values leading:

MIC of antibiotic at fixed inhibitor concentration (4 mg/L) [1]: 0.25 µg/mL
MIC of antibiotic at fixed inhibitor concentration (4 mg/L) [2]: 32 µg/mL
MIC of antibiotic at fixed inhibitor concentration (4 mg/L) [3]: 8 µg/mL
MIC of antibiotic at fixed inhibitor concentration (4 mg/L) [4]: 0.125 µg/mL
MIC of antibiotic at fixed inhibitor concentration (4 mg/L) [5]: 0.5 µg/mL
MIC of antibiotic at fixed inhibitor concentration (4 mg/L) [6]: 8 µg/mL
MIC of antibiotic at fixed inhibitor concentration (4 mg/L) [7]: 4 µg/mL
Compound: Nc1cc[n+](CC(=O)N2CC[C@@H]3[C@H]2C(=O)N3S(=O)(=O)[O-])cc1 [Compound 103, (1S,5R)-2-[2-(4-aminopyridinium)acetyl]-7-oxo-2,6-diazabicyclo[3.2.0]heptane-6-sulfonate, inner salt]

MIC of antibiotic at fixed inhibitor concentration (4 mg/L) [1]: 0.5 µg/mL
MIC of antibiotic at fixed inhibitor concentration (4 mg/L) [2]: 32 µg/mL
MIC of antibiotic at fixed inhibitor concentration (4 mg/L) [3]: >32 µg/mL
MIC of antibiotic at fixed inhibitor concentration (4 mg/L) [4]: 0.125 µg/mL
MIC of antibiotic at fixed inhibitor concentration (4 mg/L) [5]: 1 µg/mL
MIC of antibiotic at fixed inhibitor concentration (4 mg/L) [6]: >32 µg/mL
MIC of antibiotic at fixed inhibitor concentration (4 mg/L) [7]: 8 µg/mL
Compound: C[N+]1(CC(=O)N2CC[C@@H]3[C@H]2C(=O)N3S(=O)(=O)[O-])CCN(C(=O)n2ccnc2)CC1 [Compound 407, (1S,5R)-2-{2-[4-(imidazolylcarbonyl)-1-methylpiperazinium]acetyl}-7-oxo-2,6-diazabicyclo[3.2.0]heptane-6-sulfonate, inner salt]

MIC of antibiotic at fixed inhibitor concentration (4 mg/L) [1]: 0.25 µg/mL
MIC of antibiotic at fixed inhibitor concentration (4 mg/L) [2]: 32 µg/mL
MIC of antibiotic at fixed inhibitor concentration (4 mg/L) [3]: 16 µg/mL
MIC of antibiotic at fixed inhibitor concentration (4 mg/L) [4]: 0.25 µg/mL
MIC of antibiotic at fixed inhibitor concentration (4 mg/L) [5]: 0.25 µg/mL
MIC of antibiotic at fixed inhibitor concentration (4 mg/L) [6]: >32 µg/mL
MIC of antibiotic at fixed inhibitor concentration (4 mg/L) [7]: 4 µg/mL
Compound: Cc1cc[n+](CC(=O)N2CC[C@@H]3[C@H]2C(=O)N3S(=O)(=O)[O-])cc1C [Compound 121, (1S,5R)-2-[2-(3,4-dimethylpyridinium)acetyl]-7-oxo-2,6-diazabicyclo[3.2.0]heptane-6-sulfonate, inner salt]
